Measured values from US8629276B2, “Inhibitors of human immunodeficiency virus replication” (priority 2012, dated 2014).

tested on: recombinant NL-Rluc virus; assay: Inhibition of HIV replication (NL-RLuc virus, luciferase readout in MT-2 cells); type: cell-based; conditions: Human immunodeficiency virus 1, MT2, 120 h

Compound	EC50
Cc1ccc(-c2c3c(nc(C)c2[C@H](OC(C)(C)C)C(=O)O)CCN(CCCc2ccc(Cl)cc2)C3)cc1 [Example 34, (S)-2-(tert-Butoxy)-2-(6-(3-(4-chlorophenyl)propyl)-2-methyl-4-(p-tolyl)-5,6,7,8-tetrahydro-1,6-naphthyridin-3-yl)acetic acid]	12 nM
Cc1ccccc1CCCN1CCc2nc(C)c([C@H](OC(C)(C)C)C(=O)O)c(-c3cc(F)c4c(c3C)CCCO4)c2C1 (atropisomer, axis not shown) [Example 48, (2S)-2-(tert-Butoxy)-2-((R)-4-(8-fluoro-5-methylchroman-6-yl)-2-methyl-6-(3-(o-tolyl)propyl)-5,6,7,8-tetrahydro-1,6-naphthyridin-3-yl)acetic acid]	2 nM
Cc1ccc(CCCN2CCc3nc(C)c([C@H](OC(C)(C)C)C(=O)O)c(-c4cc(F)c5c(c4C)CCCO5)c3C2)cc1F (atropisomer, axis not shown) [Example 51]	1 nM
Cc1ccc(CCCN2CCc3nc(C)c([C@H](OC(C)(C)C)C(=O)O)c(-c4cc(F)c5c(c4C)CCCO5)c3C2)cc1 [Example 54, (2S)-2-(tert-Butoxy)-2-(4-(8-fluoro-5-methylchroman-6-yl)-2-methyl-6-(3-(p-tolyl)propyl)-5,6,7,8-tetrahydro-1,6-naphthyridin-3-yl)acetic acid]	2 nM
Cc1ccc(-c2c3c(nc(C)c2C(OC(C)(C)C)C(=O)O)CCN(c2ccccc2)C3)cc1 (stereo not shown) [Example 31, 2-(tert-Butoxy)-2-(2-methyl-6-phenyl-4-(p-tolyl)-5,6,7,8-tetrahydro-1,6-naphthyridin-3-yl)acetic acid]	466 nM
Cc1ccc(-c2c3c(nc(C)c2C(OC(C)(C)C)C(=O)O)CCN(Cc2ccccc2)C3)cc1 (stereo not shown) [Example 21, 2-(6-Benzyl-2-methyl-4-(p-tolyl)-5,6,7,8-tetrahydro-1,6-naphthyridin-3-yl)-2-(tert-butoxy)acetic acid]	295 nM
CC(C)c1nc2c(c(-c3ccc(F)cc3)c1C(OC(C)(C)C)C(=O)O)CN(c1cccc(-c3ccccc3)c1)CC2(C)C (stereo not shown) [Example 17, 2-(6-([1,1′-Biphenyl]-3-yl)-4-(4-fluorophenyl)-2-isopropyl-8,8-dimethyl-5,6,7,8-tetrahydro-1,6-naphthyridin-3-yl)-2-(tert-butoxy)acetic acid]	4600 nM
CC(C)c1nc2c(c(-c3ccc(F)cc3)c1C(OC(C)(C)C)C(=O)O)CN(C(=O)Cc1ccccc1)CC2(C)C (stereo not shown) [Example 7, 2-tert-Butoxy-2-(4-(4-fluorophenyl)-2-isopropyl-8,8-dimethyl-6-(2-phenylacetyl)-5,6,7,8-tetrahydro-1,6-naphthyridin-3-yl)acetic acid]	7540 nM
Cc1nc2c(c(-c3cc(F)c4c(c3C)CCCO4)c1[C@H](OC(C)(C)C)C(=O)O)CN(CCCc1ccc(F)cc1)CC2 (atropisomer, axis not shown) [Example 45, (S)-2-(tert-Butoxy)-2-((R)-4-(8-fluoro-5-methylchroman-6-yl)-6-(3-(4-fluorophenyl)propyl)-2-methyl-5,6,7,8-tetrahydro-1,6-naphthyridin-3-yl)acetic acid]	4 nM
COc1ccc(CCCN2CCc3nc(C)c([C@H](OC(C)(C)C)C(=O)O)c(-c4ccc(C)cc4)c3C2)cc1 [Example 33, (S)-2-(tert-Butoxy)-2-(6-(3-(4-methoxyphenyl)propyl)-2-methyl-4-(p-tolyl)-5,6,7,8-tetrahydro-1,6-naphthyridin-3-yl)acetic acid]	17 nM
CC(C)c1nc2c(c(-c3ccc(F)cc3)c1C(OC(C)(C)C)C(=O)O)CN(C(=O)c1ccccc1)CC2(C)C (stereo not shown) [Example 3, 2-(6-Benzoyl-4-(4-fluorophenyl)-2-isopropyl-8,8-dimethyl-5,6,7,8-tetrahydro-1,6-naphthyridin-3-yl)-2-tert-butoxyacetic acid]	6790 nM
CC(C)c1nc2c(c(-c3ccc(F)cc3)c1C(OC(C)(C)C)C(=O)O)CN(Cc1ccc(F)cc1)CC2(C)C (stereo not shown) [Example 16, 2-tert-Butoxy-2-(6-(4-fluorobenzyl)-4-(4-fluorophenyl)-2-isopropyl-8,8-dimethyl-5,6,7,8-tetrahydro-1,6-naphthyridin-3-yl)acetic acid]	6920 nM
Cc1ccc(-c2c3c(nc(C)c2[C@H](OC(C)(C)C)C(=O)O)CCN(C(=O)CCCc2ccccc2)C3)cc1 [Example 36, (S)-2-(tert-Butoxy)-2-(2-methyl-6-(4-phenylbutanoyl)-4-(p-tolyl)-5,6,7,8-tetrahydro-1,6-naphthyridin-3-yl)acetic acid]	52 nM
Cc1nc2c(c(-c3cc(F)c4c(c3C)CCCO4)c1[C@H](OC(C)(C)C)C(=O)O)CN(Cc1cccc(Cl)c1)CC2(C)C [Example 37, (2S)-2-(tert-Butoxy)-2-(6-(3-chlorobenzyl)-4-(8-fluoro-5-methylchroman-6-yl)-2,8,8-trimethyl-5,6,7,8-tetrahydro-1,6-naphthyridin-3-yl)acetic acid]	69 nM
Cc1ccc(-c2c3c(nc(C)c2C(OC(C)(C)C)C(=O)O)CCN(S(C)(=O)=O)C3)cc1 (stereo not shown) [Example 22, 2-(tert-Butoxy)-2-(2-methyl-6-(methylsulfonyl)-4-(p-tolyl)-5,6,7,8-tetrahydro-1,6-naphthyridin-3-yl)acetic acid]	2650 nM
Cc1ccc(-c2c3c(nc(C)c2C(OC(C)(C)C)C(=O)O)CCN(C(=O)NCc2ccccc2)C3)cc1 (stereo not shown) [Example 27, 2-(6-(Benzylcarbamoyl)-2-methyl-4-(p-tolyl)-5,6,7,8-tetrahydro-1,6-naphthyridin-3-yl)-2-(tert-butoxy)acetic acid]	499 nM
Cc1nc2c(c(-c3cc(F)c4c(c3C)CCCO4)c1[C@H](OC(C)(C)C)C(=O)O)CN(CCCc1ccc(Cl)cc1)CC2 (atropisomer, axis not shown) [Example 44, (2S)-2-(tert-Butoxy)-2-(6-(3-(4-chlorophenyl)propyl)-(R)-4-(8-fluoro-5-methylchroman-6-yl)-2-methyl-5,6,7,8-tetrahydro-1,6-naphthyridin-3-yl)acetic acid]	3 nM
Cc1ccc(-c2c3c(nc(C)c2C(OC(C)(C)C)C(=O)O)CCN(C(=O)CCc2ccccc2)C3)cc1 (stereo not shown) [Example 28, 2-(tert-Butoxy)-2-(2-methyl-6-(3-phenylpropanoyl)-4-(p-tolyl)-5,6,7,8-tetrahydro-1,6-naphthyridin-3-yl)acetic acid]	335 nM
CC(C)c1nc2c(c(-c3ccc(F)cc3)c1C(OC(C)(C)C)C(=O)O)CN(C(=O)CCCc1ccccc1)CC2(C)C (stereo not shown) [Example 9, 2-tert-Butoxy-2-(4-(4-fluorophenyl)-2-isopropyl-8,8-dimethyl-6-(4-phenylbutanoyl)-5,6,7,8-tetrahydro-1,6-naphthyridin-3-yl)acetic acid]	6710 nM
Cc1nc2c(c(-c3cc(F)c4c(c3C)CCCO4)c1[C@H](OC(C)(C)C)C(=O)O)CN(CC1CC1c1ccccc1)CC2 (stereo partly drawn) [Example 50, (2S)-2-(tert-Butoxy)-2-((R)-4-(8-fluoro-5-methylchroman-6-yl)-2-methyl-6-((2-phenylcyclopropyl)methyl)-5,6,7,8-tetrahydro-1,6-naphthyridin-3-yl)acetic acid]	5 nM
Cc1nc2c(c(-c3cc(F)c4c(c3C)CCCO4)c1[C@H](OC(C)(C)C)C(=O)O)CN(CCCc1ccccc1F)CC2 (atropisomer, axis not shown) [Example 55, (2S)-2-(tert-Butoxy)-2-((R)-4-(8-fluoro-5-methylchroman-6-yl)-6-(3-(2-fluorophenyl)propyl)-2-methyl-5,6,7,8-tetrahydro-1,6-naphthyridin-3-yl)acetic acid]	1 nM
Cc1nc2c(c(-c3cc(F)c4c(c3C)CCCO4)c1[C@H](OC(C)(C)C)C(=O)O)CN(CCCc1ccccc1)CC2 (atropisomer, axis not shown) [Example 42, (2S)-2-(tert-Butoxy)-2-((R)-4-(8-fluoro-5-methylchroman-6-yl)-2-methyl-6-(3-phenylpropyl)-5,6,7,8-tetrahydro-1,6-naphthyridin-3-yl)acetic acid]	7 nM
Cc1nc2c(c(-c3cc(F)c4c(c3C)CCCO4)c1[C@H](OC(C)(C)C)C(=O)O)CN(C(=O)OCc1ccccc1)CC2(C)C [Example 35, (2S)-2-(6-((Benzyloxy)carbonyl)-4-(8-fluoro-5-methylchroman-6-yl)-2,8,8-trimethyl-5,6,7,8-tetrahydro-1,6-naphthyridin-3-yl)-2-(tert-butoxy)acetic acid]	3 nM
CC(C)c1nc2c(c(-c3ccc(F)cc3)c1C(OC(C)(C)C)C(=O)O)CN(C(=O)c1ccc(F)cc1)CC2(C)C (stereo not shown) [Example 4, 2-tert-Butoxy-2-(6-(4-fluorobenzoyl)-4-(4-fluorophenyl)-2-isopropyl-8,8-dimethyl-5,6,7,8-tetrahydro-1,6-naphthyridin-3-yl)acetic acid]	3160 nM
Cc1ccc(-c2c3c(nc(C)c2C(OC(C)(C)C)C(=O)O)CCN(c2ccc(-c4ccccc4)cc2)C3)cc1 (stereo not shown) [Example 30, 2-(6-([1,1′-Biphenyl]-4-yl)-2-methyl-4-(p-tolyl)-5,6,7,8-tetrahydro-1,6-naphthyridin-3-yl)-2-(tert-butoxy)acetic acid]	323 nM
